Patent US20220000969A1, “COMBINATIONS OF LYSOBACTIN AND AMINOGLYCOSIDES AGAINST DISEASES CAUSED BY GRAM-POSITIVE AND GRAM-NEGATIVE BACTERIA IN NON-HUMAN ANIMALS” (Bayer Animal Health GmbH, priority 2017, published 2022)
Starred links: 1 amine or outer side, 2 acyl side, 3 side chain; linkers in the order of their positions; H or OH if unused. Positions of bridges follow the written chain, without caps; N, C: chain ends. Non-standard residues stand in square brackets, D forms with d. Residues, ends and D or L forms follow the SMILES beside them. Phe(3R-OH) = O=C([C@@H](N[*:1])[C@H](O[*:3])c1ccccc1)[*:2]; Asn(3S-OH) = NC(=O)[C@@H](O)[C@H](N)C(=O)O; Leu(3R-OH) = CC(C)[C@@H](O)[C@H](N)C(=O)O; aThr = C[C@H](O)[C@H](N)C(=O)O

Columns and labels:
[1] = test system: Streptococcus uberis ATCC 27958; experiment: in vitro kill kinetics of lysobactin alone in milk; type: cell-based; conditions: lysobactin 4-64 μg/mL, at 48 h
Experimental: (§1) In order to assess the ability of lysobactin to kill bacteria in milk, flasks containing different concentrations of lysobactin in store-bought full-fat milk were inoculated with 1-2×10^6 colony forming units/ml of a representative strain of either Staphyloccus aureus or Streptococcus uberis. The flasks were incubated for 24-48 hours in a shaking water bath at 35+/−2° C., and viable bacterial counts in each flask were determined at several time-points by diluting and plating samples on agar plates. A reduction of the number of viable bacteria in the initial inoculum by at least 99.9% is defined as bactericidal activity.
(§2) The kill kinetics of lysobactin against Staphylococcus aureus ATCC 29740 and Streptococcus uberis ATCC 27958 in milk were determined for concentrations of lysobactin of 4, 8, 16, 32 and 64 μg/mL. Results are depicted in FIG. 1 (CFU: colony forming units). A cidality at 24 h and 48 h, respectively, can be postulated for S. aureus and S. uberis.

[2] = test system: Staphylococcus aureus ATCC 29740; experiment: in vitro kill kinetics of lysobactin alone in milk; type: cell-based; conditions: lysobactin 4-64 μg/mL, at 24 h
Experimental: as §1, §2

Staphylococcus aureus [3] = experiment: Staphylococcus aureus acute mouse mastitis model; type: in vivo, lactating CD-1 mice
Experimental: The efficacy of lysobactin (formulated in a hydrogel at pH 4.7) was tested in a Staphylococcus aureus acute mouse mastitis model established at the University of Sherbrooke, Canada (Brouillette et al, Vet. Microbiol. (2004) 4:253-262), that is hereby incorporated by reference. Both the abdominal mammary glands (L4 and R4) of lactating CD-1 mice were intramammarily infected with 100 CFU (colony forming units) of S. aureus. The mice were treated intramammarily with lysobactin four hours after infection. Each treatment group contained at least 3 mice (6 quarters), 14 hours later (18 hours after inoculation) mice were sacrificed, mammary glands were harvested and the CFU content evaluated by plating 10-fold serial dilutions of mammary gland homogenates. The CFU content was expressed as log10 count. The detection limit was 200 CFU/g of gland. Glands with less than 200 CFU/g were regarded as cleared. The efficacy of lysobactin and neomycin trisulfate, either alone or in combination, was tested in a Staphylococcus aureus acute mouse mastitis model established at the University of Sherbrooke, Canada (Brouillette et al, Vet. Microbiol. (2004) 4:253-262), as described in example 5. Samples were formulated in paraffin.

S. uberis = experiment: resistance development during serial passaging; type: cell-based, Streptococcus uberis; conditions: serial passaging at sub-MIC concentrations over 33 days
Experimental: (§3) The appearance of MIC changes during constant exposure of bacteria to sub-MIC concentrations of lysobactin was assessed by serial passaging experiments. On the first day the MICs of S. aureus and S. uberis were assessed by microbroth dilution MIC methodology as described by the Clinical and Laboratory Standards Institute (CLSI). Each day for the following 33 consecutive days, bacteria from the well containing the highest concentrations allowing full growth were collected and used to inoculate new 96-well plates and to assess the MIC during constant exposure to lysobactin. The MIC obtained on each day was plotted over time. Rifampicin, which is known to result in quick changes of the MIC, was used as positive control.

Staphylococcus aureus [4] = experiment: dairy cow udder infection model with S. aureus (example 15); type: in vivo, lactating dairy cows; conditions: for microbiological cure rate: miglyol based suspension, two times; for SCC recovery rate: counts below 200.000 cells per mL
From the text: Fifteen healthy lactating dairy cows were experimentally infected with the mastitis pathogen Staphylococcus aureus on all four udder quarters.
Additionally a fourth group of udder quarters received miglyol as negative control. Treatments were randomly assigned to 60 udder quarters in total. Only udder quarters that were bacteriologically positive for the challenge organism immediately prior to treatment (n=49) were eligible for assessment of microbiological and clinical cure. The diseased quarters were treated with these intramammary formulations two times with an interval of 24 hours in between. Udders were clinically examined and milk samples were taken before treatment and several times after that until three weeks after the second administration by study personnel blinded to treatment.
Milk was inspected visually for deviation in its consistency and samples were evaluated for presence of the challenge organism and for somatic cell count to confirm the diagnosis mastitis. Diseased udder quarters were considered microbiologically cured when Staphylococcus aureus found in milk samples shortly before treatment could not be isolated from any milk sample taken within the time period between the third and the twenty-first day after the second treatment. Clinical cure was achieved when the local symptoms of mastitis had completely disappeared, and recovery of somatic cell counts (SCC) as parameter of udder inflammation was attained when all counts remained below 200.000 cells per mL of milk in the period mentioned above.

S. aureus = experiment: resistance development during serial passaging; type: cell-based, Staphylococcus aureus; conditions: serial passaging at sub-MIC concentrations over 33 days
Experimental: as §3

[5] = test system: Streptococcus uberis (ATCC 27958); experiment: acute mouse mastitis model with S. uberis (example 14); type: in vivo, lactating CD-1 mice; conditions: paraffin formulation, 18 h after infection
Experimental: Twenty-three lactating CD-1 mice were experimentally infected 10-15 days after birth of the offspring with the mastitis pathogen Streptococcus uberis (ATCC 27958) on the left and right fourth mammary gland. Four hours after infection the animals were treated intrammarily with the test items. The study comprised four treatment groups with four mice each and a control group with seven mice. The mice of the treatment groups received paraffin formulations of lysobactin at 15 μg/gland or neomycin trisulfate at 1600 μg/gland, or two combinations of both with lysobactin at 15 μg plus neomycin trisulfate at 800 μg or 1600 μg per gland. Eighteen hours after infection the mice were killed and the mammary glands were removed and bacterial CFU were evaluated microbiologically.

E. coli P4:032 = experiment: in vitro kill kinetics of combinations in milk (synergy); type: cell-based; conditions: after 8 h, 32 μg/ml neomycin alone
Experimental: The flasks were incubated for 24-48 hours in a shaking water bath at 35+/−2° C., and viable bacterial counts in each flask were determined at several time-points by diluting and plating samples on agar plates.
The kill kinetics of lysobactin and neomycin, either alone or in combination, against E. coli P4:032 in milk were determined for concentration ratio of lysobactin:neomycin of […] (256 μg/ml lysobactin and 32 μg/ml neomycin).

[6] = Day 3 after second treatment, lysobactin 50 mg
[7] = Day 21 after second treatment, lysobactin 50 mg
[8] = Day 3 after second treatment, neomycin trisulfate 400 mg
[9] = Day 21 after second treatment, neomycin trisulfate 400 mg

How did the “cidality (reduction of viable bacteria by at least 99.9%)” value [1] turn out when `CC[C@H](C)[C@@H]1NC(=O)[C@@H](CCCNC(=N)N)NC(=O)[C@H](CC(C)C)NC(=O)[C@H]([C@H](O)C(C)C)NC(=O)[C@@H](NC(=O)[C@H](CC(C)C)NC(=O)[C@H](N)CC(C)C)[C@@H](c2ccccc2)OC(=O)[C@H](CO)NC(=O)[C@H]([C@H](O)C(N)=O)NC(=O)CNC(=O)[C@H]([C@H](C)O)NC1=O` [lysobactin] (H-[dL]L[Phe(3R-OH)][Leu(3R-OH)]L[dR]I[aThr]G[Asn(3S-OH)]S; ester 3-C) was run?
Its value is “cidality”.

And the “cidality (reduction of viable bacteria by at least 99.9%)” value [2]?
The value was “cidality”.

What about the “reduction of median CFU content” value (Staphylococcus aureus [3]; 50 μg lysobactin intramammary, formulated in paraffin) of the same compound?
The value was “ca. 2.7 log10”.

And the “reduction of median CFU content” value (Staphylococcus aureus [3]; 50 μg lysobactin intramammary, hydrogel pH 4.7, 4 h after infection, glands 18 h after inoculation)?
Its value is “ca. 4 log10”.

What about the “elimination of infection from glands” value (Staphylococcus aureus [3]; 400 μg lysobactin intramammary, hydrogel pH 4.7, cleared = less than 200 CFU/g) of the same compound?
The value was “eliminates the infection from all infected glands”.

And the “MIC change during constant exposure” value (S. uberis)?
Its value is “remain constant”.

What about the “local clinical cure rate” value (Staphylococcus aureus [4]; [6]) of the same compound?
The value was 71%.

What about the microbiological cure rate (Staphylococcus aureus [4]; [6]) of the same compound?
Its microbiological cure rate is 71%.

What about the SCC recovery rate (Staphylococcus aureus [4]; [6]) of the same compound?
Its SCC recovery rate is 35%.

What about the “local clinical cure rate” value (Staphylococcus aureus [4]; [7]) of the same compound?
Its value is 71%.

What about the microbiological cure rate (Staphylococcus aureus [4]; [7]) of the same compound?
Its microbiological cure rate is 14%.

What about the SCC recovery rate (Staphylococcus aureus [4]; [7]) of the same compound?
The SCC recovery rate was 36%.

What about the “MIC change during constant exposure” value (S. aureus) of the same compound?
Its value is “remain constant”.

What about the “reduction of mean CFU content” value ([5]; 15 μg lysobactin per gland) of the same compound?
Its value is “ca. 2.6 log10”.

How did the “reduction of median CFU content” value (Staphylococcus aureus [3]; 1600 μg neomycin trisulfate intramammary, formulated in paraffin) turn out when `NC[C@@H]1O[C@H](O[C@@H]2[C@@H](CO)OC(O[C@@H]3[C@@H](O)[C@H](N)C[C@H](N)[C@H]3OC3O[C@H](CN)[C@@H](O)[C@H](O)[C@H]3N)[C@@H]2O)[C@H](N)[C@@H](O)[C@@H]1O` (some centres unmarked) [neomycin trisulfate, reference compound] was run?
Its value is about 2.5 log10.

And the “local clinical cure rate” value (Staphylococcus aureus [4]; [8])?
Its value is 67%.

And the microbiological cure rate (Staphylococcus aureus [4]; [8])?
The microbiological cure rate was 100%.

What about the SCC recovery rate (Staphylococcus aureus [4]; [8]) of the same compound?
The SCC recovery rate was 17%.

What about the “local clinical cure rate” value (Staphylococcus aureus [4]; [9]) of the same compound?
Its value is 100%.

What about the microbiological cure rate (Staphylococcus aureus [4]; [9]) of the same compound?
The microbiological cure rate was 42%.

And the SCC recovery rate (Staphylococcus aureus [4]; [9])?
The SCC recovery rate was 50%.

What about the “reduction of mean CFU content” value ([5]; 1600 μg neomycin trisulfate per gland) of the same compound?
Its value is about 1.5 log10.

neomycin was tested. Which bacterial cell count (E. coli P4:032) did it give?
The bacterial cell count was “below the detection limit”.
